Experimental data reported in patent US12702148B2, “Acetylcholinesterase inhibitor” (Taiko Pharmaceutical Co., Ltd., priority 2019, dated 2026).
Read-outs that look alike come from different tables or passages of the source.

Experiments:
[1] = molecular target: T1, Acetylcholinesterase from Electrophorus electricus (electric eel) Type VI-S (Electrophorus electricus, UniProt O42275); test: biochemical
T1 construct: purchased Sigma-Aldrich C3389-500UN
Protocol: 2. Reagents 2.1 AchE Enzyme • Name: Acetylcholinesterase from Electrophorus electricus (electric eel) Type VI-S • Serial number: C3389-500UN • Obtained from: Sigma-Aldrich • Storage condition: Frozen (−20° C.) 2.2 AchE Activity Measurement Kit • Name: Acetylcholinesterase Activity Assay Kit • Serial number: MAK119 • Obtained from: Sigma-Aldrich • Storage condition: Room temperature 2.3 Solvent • Name: UltraPure 1M Tris-HCL pH 7.5 • Serial number: 15567-027 • Obtained from: Invitrogen • Storage condition: Refrigerated (4° C.) 2.4 Water
AchE enzyme (lyophilized powder) 2 mg (500 units) was dissolved in 2 mL of Tris-HCL Buffer pH 7.5 prepared to a concentration of 20 mM. This was then further diluted 30-folds with ultrapure water to prepare to a concentration of 33.3 μg/mL.
Two mg of the reagent included in the AchE activity measurement kit was weighed, dissolved in 200 mL of the assay buffer, and the working solution was obtained.
Measurement was carried out according to the following order. • 1) AchE enzyme solution (33.3 μg/mL) is mixed with test substance 1 solution (5 mg/mL) and ultrapure water according to the following Table 1.
(§1) • 2) The mixture is allowed to react in a thermobath at 37° C. for 10 minutes. • 3) 200 μL each of ultrapure water is added to 4 wells (n=4) of a 96-well microplate (blank wells.) • 4) 200 μL each of the calibrator included in the AchE activity measurement kit is added to 4 wells (n=4) different from those in Procedure 3) (calibrator wells.) • 5) 190 μL each of the working solution is added to yet another 24 wells (6 samples×4) (sample wells.) • 6) To the wells with the working solution added, 10μ each of post-reaction solutions No. 1-6 obtained in Procedure 2) is added to 4 wells (n=4) each. • 7) The plates are lightly tapped to allow mixing, reacted for 2 minutes at room temperature, and then absorbance at 412 nm is read with a microplate reader. • 8) This is allowed to react for another 8 minutes at room temperature (a total of 10 minutes), and then the absorbance at 412 nm is measured.
Measurement was carried out according to the following order. • 1) AchE enzyme solution (33.3 μg/mL) is mixed with test substance 2 solution (800 μg/mL) and ultrapure water according to the following Table 2.
as §1, with “measured. 6. Data Processing” for “measured.”
Employing the absorbance values obtained, the AchE activity (units/mL) was calculated by the formula below, and the average value and standard deviation of the AchE activity (units/mL) for each test substance at each concentration was calculated.
[formula] • (A412) final: Absorbance value at 412 nm after 10 minutes of reaction • (A412) initial Absorbance value at 412 nm after 2 minutes of reaction • n: Dilution coefficient (n=120) 0.2: Coefficient by Calibrator
Moreover, employing the AchE activity for the test substance at each concentration, One phase exponential decay curve was obtained by GraphPad Prism, and the IC50 value (mg/mL) was calculated.

[2] = molecular target: T1, Acetylcholinesterase from Electrophorus electricus (electric eel) Type VI-S; type: biochemical; details: n=3, average value

T1 sequence (O42275 24-633): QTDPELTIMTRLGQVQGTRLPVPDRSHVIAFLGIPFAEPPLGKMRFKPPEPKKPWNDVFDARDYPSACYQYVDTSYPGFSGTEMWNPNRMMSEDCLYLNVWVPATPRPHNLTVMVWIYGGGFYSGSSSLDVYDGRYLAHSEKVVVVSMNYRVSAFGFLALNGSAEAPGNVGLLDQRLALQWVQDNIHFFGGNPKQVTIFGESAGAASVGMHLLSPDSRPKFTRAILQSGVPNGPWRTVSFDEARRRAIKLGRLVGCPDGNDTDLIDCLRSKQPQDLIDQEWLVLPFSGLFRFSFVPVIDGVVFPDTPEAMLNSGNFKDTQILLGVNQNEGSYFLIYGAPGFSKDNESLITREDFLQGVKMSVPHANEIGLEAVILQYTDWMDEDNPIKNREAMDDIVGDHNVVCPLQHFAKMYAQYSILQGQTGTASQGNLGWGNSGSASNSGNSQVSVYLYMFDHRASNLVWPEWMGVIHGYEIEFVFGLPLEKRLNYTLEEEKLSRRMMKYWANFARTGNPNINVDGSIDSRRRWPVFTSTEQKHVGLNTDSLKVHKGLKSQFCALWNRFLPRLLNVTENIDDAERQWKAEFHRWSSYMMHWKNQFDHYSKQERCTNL

COc1ccccc1O [GUA, Guaiacol]
IC50 ([1]; nonlinear regression curve of AchE activity at each concentration (GraphPad Prism), read-out: IC50 value (converted)): 137 mM
inhibition at 200 µM ([1]; read-out: Inhibitory rate): 3%
inhibition at 700 µM ([1]; read-out: Inhibitory rate): 3.9%
inhibition at 2000 µM ([1]; read-out: Inhibitory rate): 2.2%
inhibition at 7000 µM ([1]; read-out: Inhibitory rate): 19.9%
inhibition at 20000 µM ([1]; read-out: Inhibitory rate): 58.8%
IC50 ([1]; regression curve by GraphPad Prism, Example 2, read-out: IC50): 17 mM
AchE activity ([2]; GUA concentration 0.2 mM): 24.89 units/mL
AchE activity ([2]; GUA concentration 0.7 mM): 24.64 units/mL
AchE activity ([2]; GUA concentration 2 mM): 25.09 units/mL
AchE activity ([2]; GUA concentration 7 mM): 20.54 units/mL
AchE activity ([2]; GUA concentration 20 mM): 10.56 units/mL
